The record followed here is US20240173303A1, “1,2,5-Oxadiazoles As Inhibitors Of Indoleamine 2,3- Dioxygenase” (Incyte Corporation, priority 2008, published 2024).

The structures appear in SMILES notation.

The target in the first assay is Human indoleamine 2,3-dioxygenase (IDO) (Homo sapiens (Human), UniProt P14902). Nature of the assay: Human Indoleamine 2,3-Dioxygenase (IDO) Enzyme Assay. The conditions noted are these: Table 2; assay of Example A; 95 nM IDO, 2 mM D-Trp, pH 6.5, room temperature. It counts as biochemical. An excerpt: Human indoleamine 2,3-dioxygenase (IDO) with an N-terminal His tag was expressed in E. coli and purified to homogeneity. IDO catalyzes the oxidative cleavage of the pyrrole ring of the indole nucleus of tryptophan to yield N′-formylkynurenine.
Human indoleamine 2,3-dioxygenase (IDO), sequence (P14902 whole entry): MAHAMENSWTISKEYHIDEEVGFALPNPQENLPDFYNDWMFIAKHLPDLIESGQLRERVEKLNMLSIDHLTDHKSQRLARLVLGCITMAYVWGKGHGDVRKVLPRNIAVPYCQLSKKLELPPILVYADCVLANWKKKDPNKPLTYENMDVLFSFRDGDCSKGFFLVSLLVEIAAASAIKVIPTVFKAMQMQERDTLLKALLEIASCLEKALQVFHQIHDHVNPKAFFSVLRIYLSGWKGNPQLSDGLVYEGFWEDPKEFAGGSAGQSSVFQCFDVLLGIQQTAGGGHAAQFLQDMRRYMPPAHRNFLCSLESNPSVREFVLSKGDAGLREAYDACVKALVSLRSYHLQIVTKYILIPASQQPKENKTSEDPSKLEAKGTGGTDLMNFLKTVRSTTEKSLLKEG
As a reminder, the IC50 is the concentration at which inhibition is half-maximal. High values mean a need for much substance, low ones inhibition by little substance. Turning to `NS(=O)(=O)NCCCNc1nonc1C(=NO)Nc1ccc(F)c(Br)c1` [Example 3, 4-({3-[(Aminosulfonyl)amino]propyl}amino)-N-(3-bromo-4-fluorophenyl)-N′-hydroxy-1,2,5-oxadiazole-3-carboximidamide], the IC50 is less than 100 nM.
`CS(=O)(=O)NCCCNc1nonc1C(=NO)Nc1ccc(F)c(Br)c1` [Example 4, N-(3-Bromo-4-fluorophenyl)-N′-hydroxy-4-({3-[(methylsulfonyl)amino]propyl}amino)-1,2,5-oxadiazole-3-carboximidamide] showed an IC50 of less than 100 nM.
`NS(=O)(=O)NCCNc1nonc1C(=NO)Nc1ccc(F)c(Cl)c1` [Example 5, 4-({2-[(Aminosulfonyl)amino]ethyl}amino)-N-(3-chloro-4-fluorophenyl)-N′-hydroxy-1,2,5-oxadiazole-3-carboximidamide] came in with an IC50 of less than 200 nM.
On the same count and under the same terms, to `CS(=O)(=O)NCCNc1nonc1C(=NO)Nc1ccc(F)c(Cl)c1` [Example 6, N-(3-Chloro-4-fluorophenyl)-N′-hydroxy-4-({2-[(methylsulfonyl)amino]ethyl}amino)-1,2,5-oxadiazole-3-carboximidamide] belongs less than 200 nM; to `NS(=O)(=O)NCCCNc1nonc1C(=NO)Nc1ccc(F)c(Cl)c1` [Example 7, 4-({3-[(Aminosulfonyl)amino]propyl}amino)-N-(3-chloro-4-fluorophenyl)-N′-hydroxy-1,2,5-oxadiazole-3-carboximidamide], less than 200 nM; to `CS(=O)(=O)NCCCNc1nonc1C(=NO)Nc1ccc(F)c(Cl)c1` [Example 8, N-(3-Chloro-4-fluorophenyl)-N′-hydroxy-4-({3-[(methylsulfonyl)amino]propyl}amino)-1,2,5-oxadiazole-3-carboximidamide], less than 200 nM.
Still for that read-out and setting: to `NS(=O)(=O)NCCNc1nonc1C(=NO)Nc1ccc(F)c(C(F)(F)F)c1` [Example 9, 4-({2-[(Aminosulfonyl)amino]ethyl}amino)-N-[4-fluoro-3-(trifluoromethyl)phenyl]-N′-hydroxy-1,2,5-oxadiazole-3-carboximidamide] belongs less than 100 nM; to `CS(=O)(=O)NCCNc1nonc1C(=NO)Nc1ccc(F)c(C(F)(F)F)c1` [Example 10, N-[4-Fluoro-3-(trifluoromethyl)phenyl]-N′-hydroxy-4-({2-[(methylsulfonyl)amino]ethyl}amino)-1,2,5-oxadiazole-3-carboximidamide], less than 100 nM.
`NS(=O)(=O)NCCCNc1nonc1C(=NO)Nc1ccc(F)c(C(F)(F)F)c1` [Example 11, 4-({3-[(Aminosulfonyl)amino]propyl}amino)-N-[4-fluoro-3-(trifluoromethyl)phenyl]-N′-hydroxy-1,2,5-oxadiazole-3-carboximidamide] came in with an IC50 of less than 100 nM.
Still for that read-out and setting: to `CS(=O)(=O)NCCCNc1nonc1C(=NO)Nc1ccc(F)c(C(F)(F)F)c1` [Example 12, N-[4-Fluoro-3-(trifluoromethyl)phenyl]-N′-hydroxy-4-({3-[(methylsulfonyl)amino]propyl}amino)-1,2,5-oxadiazole-3-carboximidamide] belongs less than 100 nM; to `NS(=O)(=O)NCCNc1nonc1C(=NO)Nc1cccc(C(F)(F)F)c1` [Example 13, 4-({2-[(Aminosulfonyl)amino]ethyl}amino)-N′-hydroxy-N-[3-(trifluoromethyl)phenyl]-1,2,5-oxadiazole-3-carboximidamide], less than 500 nM; to `CS(=O)(=O)NCCNc1nonc1C(=NO)Nc1cccc(C(F)(F)F)c1` [Example 14, N′-Hydroxy-4-({2-[(methylsulfonyl)amino]ethyl}amino)-N-[3-(trifluoromethyl)phenyl]-1,2,5-oxadiazole-3-carboximidamide], less than 200 nM.
On the same count and under the same terms, for `NS(=O)(=O)NCCCNc1nonc1C(=NO)Nc1cccc(C(F)(F)F)c1` [Example 15, 4-({3-[(Aminosulfonyl)amino]propyl}amino)-N′-hydroxy-N-[3-(trifluoromethyl)phenyl]-1,2,5-oxadiazole-3-carboximidamide] the value was less than 200 nM; for `CS(=O)(=O)NCCCNc1nonc1C(=NO)Nc1cccc(C(F)(F)F)c1` [Example 16, N′-Hydroxy-4-({3-[(methylsulfonyl)amino]propyl}amino)-N-[3-(trifluoromethyl)phenyl]-1,2,5-oxadiazole-3-carboximidamide], less than 200 nM.
Turning to `Cc1cc(NC(=NO)c2nonc2NCCNS(C)(=O)=O)ccc1F` [Example 17, N-(4-Fluoro-3-methylphenyl)-N′-hydroxy-4-({2-[(methylsulfonyl)amino]ethyl}amino)-1,2,5-oxadiazole-3-carboximidamide], the IC50 is less than 500 nM.
Molecule `N#Cc1cc(NC(=NO)c2nonc2NCCNS(N)(=O)=O)ccc1F` [Example 18, 4-({2-[(Aminosulfonyl)amino]ethyl}amino)-N-(3-cyano-4-fluorophenyl)-N′-hydroxy-1,2,5-oxadiazole-3-carboximidamide] displayed a half-maximal inhibitory concentration (IC50) of less than 750 nM.
The molecule `CS(=O)(=O)NCCNc1nonc1C(=NO)Nc1ccc(F)c(C#N)c1` [Example 19, N-(3-Cyano-4-fluorophenyl)-N′-hydroxy-4-({2-[(methylsulfonyl)amino]ethyl}amino)-1,2,5-oxadiazole-3-carboximidamide] registered an IC50 of less than 500 nM.

The assay is the same for the next values; noted with them: Table 3; assay of Example A; 95 nM IDO, 2 mM D-Trp, pH 6.5, room temperature.
`NS(=O)(=O)NCCNc1nonc1C(=NO)NCc1cc(Br)co1` [Example 20, 4-({2-[(Aminosulfonyl)amino]ethyl}amino)-N-[(4-bromo-2-furyl)methyl]-N′-hydroxy-1,2,5-oxadiazole-3-carboximidamide] yielded an IC50 of less than 500 nM.
`NS(=O)(=O)NCCNc1nonc1C(=NO)NCc1cc(Cl)co1` [Example 21, 4-({2-[(Aminosulfonyl)amino]ethyl}amino)-N-[(4-chloro-2-furyl)methyl]-N′-hydroxy-1,2,5-oxadiazole-3-carboximidamide] came in with an IC50 of less than 750 nM.
